In ChEMBL document CHEMBL3639234, “Pyrimidine PDE10 inhibitors” (2015) one finds Ki data, which are given here for 1 compound.

The structures appear in SMILES notation.

The experiment has as its target cAMP and cAMP-inhibited cGMP 3',5'-cyclic phosphodiesterase 10A (Homo sapiens, UniProt Q9Y233). In words: Inhibition Assay: PDE10A2 was amplified from human fetal brain cDNA (Clontech, Mountain View, Calif.) using a forward primer corresponding to nucleotides 56-77 of human PDE10A2 (Accession No. AF127480, Genbank Identifier 4894716), containing a Kozak consensus sequence, and a reverse primer corresponding to nucleotides 2406-2413 of human PDE10A2 (Accession No. AF127480, Genbank Identifier 4894716). Amplification with Easy-A polymerase (Stratagene, La Jolla, Calif.) was 95° C. for 2 minutes followed by thirty three cycles of 95° C. for 40 seconds, 55° C. for 30 seconds, and 72° C. for 2 minutes 48 seconds. Final extension was 72° C. for 7 minutes. The PCR product was TA cloned into pcDNA3.2-TOPO (Invitrogen, Carlsbad, Calif.) according to standard protocol. AD293 cells with 70-80% confluency were transiently transfected with human PDE10A2/pcDNA3.2-TOPO using Lipofectamine 2000 according to manufacturer specifications (Invitrogen, Carlsbad, Calif.). Cells were harvested 48 hours post-transfection. It is filed as cell-based.

Sequence of cAMP and cAMP-inhibited cGMP 3',5'-cyclic phosphodiesterase 10A (Q9Y233 whole entry): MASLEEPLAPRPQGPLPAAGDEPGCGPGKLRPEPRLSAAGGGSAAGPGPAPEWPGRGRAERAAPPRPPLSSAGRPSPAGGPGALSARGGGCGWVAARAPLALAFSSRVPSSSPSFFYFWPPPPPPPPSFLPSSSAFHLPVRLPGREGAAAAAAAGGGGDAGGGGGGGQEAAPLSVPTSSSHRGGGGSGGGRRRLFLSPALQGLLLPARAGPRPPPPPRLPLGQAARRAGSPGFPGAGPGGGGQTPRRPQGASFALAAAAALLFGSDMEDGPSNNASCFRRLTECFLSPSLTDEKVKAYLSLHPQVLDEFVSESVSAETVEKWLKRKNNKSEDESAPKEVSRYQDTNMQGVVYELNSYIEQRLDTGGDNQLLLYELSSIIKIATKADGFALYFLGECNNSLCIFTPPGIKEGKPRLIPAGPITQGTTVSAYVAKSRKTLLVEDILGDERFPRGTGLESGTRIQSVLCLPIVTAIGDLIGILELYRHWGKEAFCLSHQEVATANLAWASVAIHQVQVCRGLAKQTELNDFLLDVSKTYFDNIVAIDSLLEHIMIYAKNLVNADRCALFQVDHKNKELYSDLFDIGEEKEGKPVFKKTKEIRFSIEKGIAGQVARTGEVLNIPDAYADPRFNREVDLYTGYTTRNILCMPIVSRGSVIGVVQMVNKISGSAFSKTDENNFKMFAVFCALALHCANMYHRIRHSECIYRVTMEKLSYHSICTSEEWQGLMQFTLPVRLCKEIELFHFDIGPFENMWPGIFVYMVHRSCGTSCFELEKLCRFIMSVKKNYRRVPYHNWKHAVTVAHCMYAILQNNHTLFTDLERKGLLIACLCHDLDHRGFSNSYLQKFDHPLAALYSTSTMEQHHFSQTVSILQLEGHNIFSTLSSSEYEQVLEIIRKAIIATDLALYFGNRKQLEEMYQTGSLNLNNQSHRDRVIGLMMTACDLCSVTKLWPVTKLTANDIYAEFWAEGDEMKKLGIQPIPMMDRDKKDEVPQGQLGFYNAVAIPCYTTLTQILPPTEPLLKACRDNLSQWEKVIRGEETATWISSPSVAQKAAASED

What is called Ki is the equilibrium dissociation constant of an inhibitor or competing ligand from its target. A lower Ki goes with higher affinity. Take `Cc1ccc([C@H]2C[C@@H]2COc2cc(NCc3cnn(C)c3)nc(C)n2)nc1`: the affinity corresponds to a Ki of 40 pM.
